Consider one compound from US20100317734A1, “FREE FATTY ACID BLENDS AND USE THEREOF” (priority 2007, published 2010).

The subject of the test is Staphylococcus aureus. As to the kind of experiment: Contact viability assay, 2 minutes exposure. The test is classed as cell-based. The note with it: on its own. How it is done:
The assay was conducted in glass tubes and all test components were equilibrated at the teat temperature in a water bath before inoculation and during the suspension period (2 minutes). The inoculum is an 18 hour culture of Staphylococcus aureus grown in Brain Heart Infusion Broth. The reduction in CFU's are illustrated in FIG. 4. FIG. 7 illustrates the antimicrobial effect of emulsions of caprylic:oleic, capric:oleic and lauric:oleic with varying concentration in oleic acid. The emulsions were prepared by method 2 in Example 3.

Turning to `CCCCCCCC/C=C\CCCCCCCC(=O)O` [oleic acid], the antimicrobial effect result is given as “no significant antimicrobial effect”.
